Patent US7666989B2 (priority 2003, dated 2010)
≈ marks a conversion by molar mass, not a printed value. Marks after values point to notes of the source that are not given here.

Tests used:
[1] = tested on: human lung cancer NCI-H460; assay: Growth of human lung cancer NCI-H460 xenograft in nude mice; assay type: in vivo, BALB/c-nu nude mice; details: Cyclophosphamide 100 mg/kg i.p., then 80 mg/kg two weeks later
Experimental: The animals were then grouped based their tumor sizes. Each group included seven to eight animals.
(§1) The evaluation standard for efficacy:
(§2) T/C (%)>60 is ineffective;
One additional injection was given at 80 mg/kg two weeks later. […] The treatment contained a total of ten injections.

human brain glioma U251 = tested on: human brain glioma U251
From the text: (§3) In this example, the animals used were BALB/c-nu nude mice, 6-8 weeks old. For each experiment, all animals were of the same sex.
(§4) Tumor cell lines: human brain glioma U251, human lung cancer cell line NCI-H460, human colon cancer cell line COLO205 were inoculated from in vitro culture into nude mice subcutaneously, the tumors were subcultured and kept.
(§5) Experimental Procedures: well-grown nude mice carrying well-grown tumors were selected and sacrificed by disjointing neck vertebra. The tumors were removed aseptically and were cut into pieces having a diameter of 2-3 mm by a scalpel. The pieces were inoculated into the axilla of nude mice subcutaneously by a needle. […] The length and width of tumors were measured by a vernier caliper. The animals were then grouped based their tumor sizes. Each group included seven to eight animals.
(§6) The length, width of the tumor and the body weight of the mice were measured twice per week. The tumor volume (TV) and relative tumor volume (RTV) were calculated. A graph indicating the changes of tumor size was plotted. At the end of this experiment, the tumors were taken out and weighed after the mice were sacrificed, and the inhibition rates of the medicament on tumor growth were calculated.
(§7) The formula for calculating tumor volume (TV) is: length×width^2÷2.
(§8) The formula for calculating relative tumor volume (RTV) is: Vt/Vo (wherein Vo is the TV value measured when the administration is started, Vt is the TV value measured after that).
(§9) T-test was used to determine the statistical difference of tumor weights, tumor volumes and RTV etc. between different groups of animal. The index used for evaluating the anti-tumor activity is the relative tumor growth rate T/C (%), the formula for which is: […]
as §1, §2
(§10) T/C (%)≦60 and P<0.05 after statistical analysis is effective.
The Carmustine (Renmin Pharmaceuticals, Amino Acid Inc. Tianjin, P. R. China) was used as the positive control, 40 mg/kg, administered by intraperitoneal injection for once. CPT was given to four groups at the doses of 0.6 mg/kg, 1.7 mg/kg, 5.0 mg/kg, 15.0 mg/kg respectively, administered by intraperitoneal injection. The treatment included ten injections.

[2] = tested on: human colon cancer COLO 205; details: COLO 205 xenograft, hydroxycamptothecin 1 mg/kg i.p. once per day 15 days, then further courses
From the text: as §3, §4, §5, §6, §7, §8, §9, §1, §2, §10
Injectable hydroxycamptothecin (trade name: Xi Su, Wuhan Lishizhen Pharmaceuticals Inc., Huangshi Lishizhen Pharmaceuticals Group, P. R. China) was used as positive control, administered by intraperitoneal injection at the dose of 1 mg/kg, once per day. The administration was terminated after 15 consecutive days of administration. […] A single administration of 80 mg/kg hydroxycamptothecin was further given after two weeks. CPT was given to three treatment groups at the doses of 1.7 mg/kg, 5.0 mg/kg, 15.0 mg/kg respectively by intraperitoneal injection, once per day. The treatment contained a total of 15 injections.

[3] = tested on: MDA-MB-231 (human breast cancer cell); assay: MTT cytotoxicity, MDA-MB-231; assay type: cell-based; details: 96 h, 4 days
From the text: (§11) Reagents: RPMI1640 is from GIBCO; MTT is from Bebco. Fetal bovine serum is purchased from Hangzhou SiJiQing Bioengineering Material Co. Ltd. (P. R. China).
(§12) Cell lines: COLO 205 (human colon cancer cell), NCI-H460 (human lung cancer cell), RPMI 8226 (human multiple myeloma cell), U251 (human brain glioma cell) are from ATCC, USA. HL-60 (human promyelocytic leukemia cell), MDA-MB-231, MDA-MB-435 (human breast cancer cell), SCLC (human small-cell lung cancer cell), H125 (human lung cancer cell) and PC-3 (human […] cancer cell).
(§13) The well-grown tumor cells were collected to prepare a cell suspension (1×10^4/ml) with RPMI 1640 medium containing 10% fetal bovine serum. The cell suspension was inoculated into a 96-well plate, 100 μL (containing 1000 tumor cells) per well. The plate was cultured in a 5% CO2 incubator at 37° C. for 24 hours, followed by addition of medicament.
(§14) A blank control and a positive control using 5-fluorouracil or adriamycin are employed in the experiment. […]
(§15) The supernatant was discarded. […] After gently shaking, the OD values were measured by a BIORAD 550 enzyme analyzer, with the detection wavelength being 540 nm and the reference wavelength being 450 nm.
(§16) Dose-response curves were generated by plotting with the cell inhibition rates and different concentrations of medicament, and the half inhibitory concentrations (IC50) were calculated.

[4] = tested on: NCI-H460 (human lung cancer cell); assay: MTT cytotoxicity, NCI-H460; assay type: cell-based; details: 96 h, 4 days
From the text: as §11, §12, §13, §14, §15, §16

[5] = tested on: RPMI 8226 (human multiple myeloma cell); assay: MTT cytotoxicity, RPMI 8226; assay type: cell-based; details: Homo sapiens, 96 h, 4 days, read-out: IC50
From the text: as §11, §12, §13, §14, §15, §16

[6] = tested on: COLO 205 (human colon cancer cell); assay: MTT cytotoxicity, COLO 205; assay type: cell-based; details: Homo sapiens, 96 h, 4 days, read-out: IC50
From the text: as §11, §12, §13, §14, §15, §16

[7] = tested on: U251 (human brain glioma cell); assay: MTT cytotoxicity, U251; assay type: cell-based; details: U-251, 96 h, 4 days
From the text: as §11, §12, §13, §14, §15, §16

[8] = tested on: SCLC (human small-cell lung cancer cell); assay: MTT cytotoxicity, SCLC; assay type: cell-based; details: Homo sapiens, 96 h, 4 days, read-out: IC50
From the text: as §11, §12, §13
A blank control and a positive control using 5-fluorouracil or adriamycin are employed in the experiment. The CPT samples have five concentrations, three parallel wells for each concentration. The cells were cultured in an incubator with 5% CO2 at 37° C. for 4 days. Then the culture medium was removed and 100 μL MTT solution (0.4 mg/ml in RPMI 1640) was added to each well. The plate was incubated at 37° C. for four additional hours.
The supernatant was discarded. 150 μl DMSO was added into each well in order to solubilize Fomazan granulates. After gently shaking, the OD values were measured by a BIORAD 550 enzyme analyzer, with the detection wavelength being 540 nm and the reference wavelength being 450 nm.
as §16

[9] = tested on: H125 (human lung cancer cell); assay: MTT cytotoxicity, H125; assay type: cell-based; details: Homo sapiens, NCI-H125, 96 h, 4 days, read-out: IC50
From the text: as §11, §12, §13, §14, §15, §16

[10] = tested on: MDA-MB-435 (human breast cancer cell); assay: MTT cytotoxicity, MDA-MB-435; assay type: cell-based; details: Homo sapiens, 96 h, 4 days, read-out: IC50
From the text: as §11, §12, §13, §14, §15, §16

PC-3 (human cancer cell) = assay: MTT cytotoxicity, PC-3; assay type: cell-based; details: Homo sapiens, 96 h, 4 days
From the text: as §11, §12, §13, §14, §15, §16

[11] = tested on: HL-60 (human promyelocytic leukemia cell); assay: MTT cytotoxicity, HL-60; assay type: cell-based; details: 96 h, 4 days
From the text: as §11, §12, §13, §14, §15, §16

[12] = U251 xenograft, Carmustine 40 mg/kg i.p. once

O=P1(N(CCCl)CCCl)NCCCO1 (stereo not shown) [Cyclophosphamide, reference compound]
Body Weight (g) End [1]: 16.1 ± 2.2 g | RTV [1]: 3.67 ± 2.15 | T/C (%) [1]: 61.4% | Tumor volume (mm^3) End [1]: 1121 ± 434 mm^3 | Tumor weight [1]: 0.96 ± 0.35 g | Body Weight (g) Start ([1]; baseline): 20.0 ± 1.3 g | Tumor volume (mm^3) Start ([1]; baseline): 179 ± 52 mm^3 | Inhibition rate (%) ([1]; by tumor weight): 40.4%

O=NN(CCCl)C(=O)NCCCl [Carmustine, reference compound]
RTV (human brain glioma U251; [12]): 0.54 ± 0.29 | T/C (%) (human brain glioma U251; [12]): 16.0% | Tumor volume (mm^3) End (human brain glioma U251; [12]): 109 ± 78** mm^3 | Tumor weight (human brain glioma U251; [12]): 0.09 ± 0.06 g | Tumor volume (mm^3) Start (human brain glioma U251; U251 xenograft, Carmustine 40 mg/kg i.p. once, baseline): 153 ± 35 mm^3 | Inhibition rate (%) (human brain glioma U251; U251 xenograft, Carmustine 40 mg/kg i.p. once, by tumor weight): 93.0% | Body Weight (g) End (human brain glioma U251; mouse, in vivo): 19.4 ± 2.1 g | Body Weight (g) Start (human brain glioma U251; mouse, in vivo): 22.8 ± 0.7 g

CC[C@@]1(O)C(=O)OCc2c1cc1n(c2=O)Cc2cc3cc(O)ccc3nc2-1 [Hydroxycamptothecin, hydroxycamptothecin, reference compound]
Body Weight (g) End [2]: 21.0 ± 2.5 g | RTV [2]: 3.92 ± 1.91 | T/C (%) [2]: 47.2% | Tumor volume (mm^3) End [2]: 845 ± 66** mm^3 | Tumor weight [2]: 0.66 ± 0.26 g | Body Weight (g) Start ([2]; baseline): 20.4 ± 0.9 g | Tumor volume (mm^3) Start ([2]; baseline): 150 ± 34 mm^3 | Inhibition rate (%) ([2]; by tumor weight): 66.3%

O=c1[nH]cc(F)c(=O)[nH]1 [Fu, 5-fluorouracil, reference compound]
IC50 [3]: 0.318 ± 0.055 µg/mL (≈ 2.44 µM) | IC50 [4]: 0.566 ± 0.016 µg/mL (≈ 4.35 µM) | IC50 [5]: < 0.1 µg/mL | IC50 [6]: 0.826 ± 0.051 µg/mL (≈ 6.35 µM) | IC50 [7]: 0.981 ± 0.077 µg/mL (≈ 7.54 µM) | IC50 [8]: 0.617 ± 0.0257 µg/mL (≈ 4.74 µM) | IC50 [9]: 0.138 ± 0.031 µg/mL (≈ 1.06 µM) | IC50 [10]: 0.199 ± 0.138 µg/mL (≈ 1.53 µM) | IC50 (PC-3 (human cancer cell)): 4.93 ± 0.753 µg/mL (≈ 37.9 µM)

COc1cccc2c1C(=O)c1c(O)c3c(c(O)c1C2=O)C[C@@](O)(C(=O)CO)C[C@@H]3O[C@H]1C[C@H](N)[C@H](O)[C@H](C)O1 [Adr, Adriamycin]
IC50 [11]: 6 ng/mL (≈ 0.011 µM)
